From the supplement of paper PMC10307832

Key:
Assay in all cases: relative viability (nuclei count vs DMSO), 5 days (fraction); higher = more cells survive
PC-14 = system: PC-14
Procedure, shortened: (§1)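 Nuclei were stained with Hoechst during a one-step fixation (final 0.05% Triton X-100, 1% formaldehyde, 1 ug/ml Hoechst) carried out 5 days after dosing, then counted on 4× images. The cells, lung cancer lines in 1536-well plates, had been dosed by pin tool the day after seeding with one drug alone or a fixed anchor-drug dose plus five library-drug doses (not always all listed) in √10 steps. Relative viability is the nuclei count in treated wells divided by that in vehicle wells, and each value is the median of duplicate plates.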

SK-MES-1 = system: SK-MES-1
Procedure, shortened: as §1

NCI-H1915 = system: NCI-H1915
Procedure, shortened: as §1

NCI-H2347 = system: NCI-H2347
Procedure, shortened: as §1

NCI-H661 = system: NCI-H661
Procedure, shortened: as §1

NCI-H520 = system: NCI-H520
Procedure, shortened: as §1

NCI-H727 = system: NCI-H727
Procedure, shortened: as §1

NCI-H3122 = system: NCI-H3122
Procedure, shortened: as §1

LXF-289 = system: LXF-289
Procedure, shortened: as §1

NCI-H1563 = system: NCI-H1563
Procedure, shortened: as §1

NCI-H1755 = system: NCI-H1755
Procedure, shortened: as §1

LCLC-103H = system: LCLC-103H
Procedure, shortened: as §1

NCI-H441 = system: NCI-H441
Procedure, shortened: as §1

NCI-H596 = system: NCI-H596
Procedure, shortened: as §1

NCI-H650 = system: NCI-H650
Procedure, shortened: as §1

RERF-LC-KJ = system: RERF-LC-KJ
Procedure, shortened: as §1

NCI-H322M = system: NCI-H322M
Procedure, shortened: as §1

NCI-H460 = system: NCI-H460
Procedure, shortened: as §1

NCI-H1792 = system: NCI-H1792
Procedure, shortened: as §1

NCI-H1651 = system: NCI-H1651
Procedure, shortened: as §1

NCI-H2170 = system: NCI-H2170
Procedure, shortened: as §1

NCI-H1355 = system: NCI-H1355
Procedure, shortened: as §1

## Oc1nc(-c2ccc(C(F)(F)F)cc2)nc2c1CSCC2 [XAV939] + C[C@@H](Oc1cc(-c2cnn(C3CCNCC3)c2)cnc1N)c1c(Cl)ccc(F)c1Cl [Crizotinib] (partner 1 µM)
PC-14; first compound 0.08 µM
  relative viability: 0.97
PC-14; first compound 0.253 µM
  relative viability: 0.818
PC-14; first compound 0.8 µM
  relative viability: 0.834
PC-14; first compound 2.53 µM
  relative viability: 0.749
SK-MES-1; first compound 0.08 µM
  relative viability: 1.02
SK-MES-1; first compound 0.253 µM
  relative viability: 0.934
SK-MES-1; first compound 0.8 µM
  relative viability: 0.882
SK-MES-1; first compound 2.53 µM
  relative viability: 0.842
NCI-H1915; first compound 0.08 µM
  relative viability: 0.949
NCI-H1915; first compound 0.253 µM
  relative viability: 0.899
NCI-H1915; first compound 0.8 µM
  relative viability: 0.891
NCI-H1915; first compound 2.53 µM
  relative viability: 0.86
NCI-H2347; first compound 0.08 µM
  relative viability: 0.692
NCI-H2347; first compound 0.253 µM
  relative viability: 0.648
NCI-H2347; first compound 0.8 µM
  relative viability: 0.75
NCI-H2347; first compound 2.53 µM
  relative viability: 0.515
NCI-H661; first compound 0.08 µM
  relative viability: 0.922
NCI-H661; first compound 0.253 µM
  relative viability: 0.961
NCI-H661; first compound 0.8 µM
  relative viability: 0.953
NCI-H661; first compound 2.53 µM
  relative viability: 0.969
NCI-H520; first compound 0.08 µM
  relative viability: 0.778
NCI-H520; first compound 0.253 µM
  relative viability: 0.665
NCI-H520; first compound 0.8 µM
  relative viability: 0.668
NCI-H520; first compound 2.53 µM
  relative viability: 0.68
NCI-H727; first compound 0.08 µM
  relative viability: 0.812
NCI-H727; first compound 0.253 µM
  relative viability: 0.566
NCI-H727; first compound 0.8 µM
  relative viability: 0.722
NCI-H727; first compound 2.53 µM
  relative viability: 0.765
NCI-H3122; first compound 0.08 µM
  relative viability: 0.286
NCI-H3122; first compound 0.253 µM
  relative viability: 0.27
NCI-H3122; first compound 0.8 µM
  relative viability: 0.238
NCI-H3122; first compound 2.53 µM
  relative viability: 0.234
LXF-289; first compound 0.08 µM
  relative viability: 0.833
LXF-289; first compound 0.253 µM
  relative viability: 0.754
LXF-289; first compound 0.8 µM
  relative viability: 0.829
LXF-289; first compound 2.53 µM
  relative viability: 0.874
NCI-H1563; first compound 0.08 µM
  relative viability: 0.834
NCI-H1563; first compound 0.253 µM
  relative viability: 0.846
NCI-H1563; first compound 0.8 µM
  relative viability: 0.789
NCI-H1563; first compound 2.53 µM
  relative viability: 0.697
NCI-H1755; first compound 0.08 µM
  relative viability: 0.832
NCI-H1755; first compound 0.253 µM
  relative viability: 0.731
NCI-H1755; first compound 0.8 µM
  relative viability: 0.778
NCI-H1755; first compound 2.53 µM
  relative viability: 0.762
LCLC-103H; first compound 0.08 µM
  relative viability: 1.07
LCLC-103H; first compound 0.253 µM
  relative viability: 0.917
LCLC-103H; first compound 0.8 µM
  relative viability: 0.984
LCLC-103H; first compound 2.53 µM
  relative viability: 0.968
NCI-H441; first compound 0.08 µM
  relative viability: 0.986
NCI-H441; first compound 0.253 µM
  relative viability: 0.724
NCI-H441; first compound 0.8 µM
  relative viability: 0.66
NCI-H441; first compound 2.53 µM
  relative viability: 0.779
NCI-H596; first compound 0.08 µM
  relative viability: 1.12
NCI-H596; first compound 0.253 µM
  relative viability: 0.955
NCI-H596; first compound 0.8 µM
  relative viability: 1.06
NCI-H596; first compound 2.53 µM
  relative viability: 0.93
NCI-H650; first compound 0.08 µM
  relative viability: 1.01
NCI-H650; first compound 0.253 µM
  relative viability: 0.945
NCI-H650; first compound 0.8 µM
  relative viability: 0.736
NCI-H650; first compound 2.53 µM
  relative viability: 0.545
RERF-LC-KJ; first compound 0.08 µM
  relative viability: 0.807
RERF-LC-KJ; first compound 0.253 µM
  relative viability: 0.82
RERF-LC-KJ; first compound 0.8 µM
  relative viability: 0.741
RERF-LC-KJ; first compound 2.53 µM
  relative viability: 0.582
NCI-H322M; first compound 0.08 µM
  relative viability: 1.03
NCI-H322M; first compound 0.253 µM
  relative viability: 0.83
NCI-H322M; first compound 0.8 µM
  relative viability: 0.911
NCI-H322M; first compound 2.53 µM
  relative viability: 0.547
NCI-H460; first compound 0.08 µM
  relative viability: 1.44
NCI-H460; first compound 0.253 µM
  relative viability: 0.879
NCI-H460; first compound 0.8 µM
  relative viability: 0.816
NCI-H460; first compound 2.53 µM
  relative viability: 0.874
NCI-H1792; first compound 0.08 µM
  relative viability: 0.994
NCI-H1792; first compound 0.253 µM
  relative viability: 0.896
NCI-H1792; first compound 0.8 µM
  relative viability: 0.977
NCI-H1792; first compound 2.53 µM
  relative viability: 0.902
NCI-H1651; first compound 0.08 µM
  relative viability: 0.988
NCI-H1651; first compound 0.253 µM
  relative viability: 0.798
NCI-H1651; first compound 0.8 µM
  relative viability: 0.857
NCI-H1651; first compound 2.53 µM
  relative viability: 0.856
NCI-H2170; first compound 0.08 µM
  relative viability: 1.28
NCI-H2170; first compound 0.253 µM
  relative viability: 1.01
NCI-H2170; first compound 0.8 µM
  relative viability: 1.02
NCI-H2170; first compound 2.53 µM
  relative viability: 0.921
NCI-H1355; first compound 0.08 µM
  relative viability: 1.05
NCI-H1355; first compound 0.253 µM
  relative viability: 0.9
NCI-H1355; first compound 0.8 µM
  relative viability: 0.828
NCI-H1355; first compound 2.53 µM
  relative viability: 0.725
